# Results as given in US10894784B2, “Heteroarylbenzimidazole compounds” (BAYER PHARMA AKTIENGESELLSCHAFT, priority 2015, dated 2021).
# Target: TBK1 (Homo sapiens (Human), UniProt Q9UHD2)
# Assay: TBK1 low ATP kinase assay (in vitro assay 1)
# Assay type: biochemical
# Details: in vitro assay 1, read-out: TBK1 low ATP kinase assay IC50
# Sequence of TBK1 (Q9UHD2 whole entry): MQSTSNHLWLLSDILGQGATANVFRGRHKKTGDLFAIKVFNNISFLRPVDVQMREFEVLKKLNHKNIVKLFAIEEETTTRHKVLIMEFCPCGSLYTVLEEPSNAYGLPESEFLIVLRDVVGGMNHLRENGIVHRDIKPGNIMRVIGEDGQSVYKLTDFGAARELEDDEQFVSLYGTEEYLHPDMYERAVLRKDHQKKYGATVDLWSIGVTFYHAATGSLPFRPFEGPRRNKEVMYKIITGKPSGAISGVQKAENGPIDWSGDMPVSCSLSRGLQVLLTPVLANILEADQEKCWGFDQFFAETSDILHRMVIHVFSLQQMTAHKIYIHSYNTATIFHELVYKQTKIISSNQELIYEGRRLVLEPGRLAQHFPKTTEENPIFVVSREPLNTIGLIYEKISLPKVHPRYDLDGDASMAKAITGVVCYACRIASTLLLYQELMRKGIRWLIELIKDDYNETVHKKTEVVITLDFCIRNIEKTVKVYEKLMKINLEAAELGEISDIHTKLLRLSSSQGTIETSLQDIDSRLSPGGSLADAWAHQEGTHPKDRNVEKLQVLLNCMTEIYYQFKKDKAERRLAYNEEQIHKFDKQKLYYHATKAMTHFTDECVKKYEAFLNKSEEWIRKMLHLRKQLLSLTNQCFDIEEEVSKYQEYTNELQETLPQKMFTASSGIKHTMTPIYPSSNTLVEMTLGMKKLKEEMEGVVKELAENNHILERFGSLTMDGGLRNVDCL
row,Structure (SMILES),IC50
1,"Cc1noc(-c2ccc3nc(Nc4cc(CN5CCN(C(=O)C6CCC6)C[C@H]5C)ccn4)[nH]c3c2)n1 [Example 16.03.05, cyclobutyl{(3R)-3-methyl-4-[(2-{[6-(3-methyl-1,2,4-oxadiazol-5-yl)-1H-benzimidazol-2-yl]amino}pyridin-4-yl)methyl]piperazin-1-yl}methanone]",84.7 nM
2,"Cc1noc(-c2ccc3nc(Nc4cc(CN5CCN(C(=O)C(C)(C)C)CC5)ccn4)[nH]c3c2)n1 [Example 16.01.06, 2,2-dimethyl-1-{4-[(2-{[6-(3-methyl-1,2,4-oxadiazol-5-yl)-1H-benzimidazol-2-yl]amino}pyridin-4-yl)methyl]piperazin-1-yl}propan-1-one]",208 nM
3,"COc1nccc(-c2ccc3nc(Nc4cc(CN5CCN(C(=O)C6CC6)CC5)ccn4)[nH]c3c2)c1C [Example 10.01, cyclopropyl{4-[(2-{[6-(2-methoxy-3-methylpyridin-4-yl)-1H-benzimidazol-2-yl]amino}pyridin-4-yl)methyl]piperazin-1-yl}methanone]",2260 nM
4,"CC(c1ccnc(Nc2nc3ccc(-c4cnn(CC5(Cl)CC5)c4)cc3[nH]2)c1)N1CCN(C(=O)OC(C)(C)C)CC1 (single isomer, unassigned) [Example 69.01, tert-butyl 4-[(1R or 1S)-1-{2-[(6-{1-[(1-chlorocyclopropyl)methyl]-1H-pyrazol-4-yl}-1H-benzimidazol-2-yl)amino]pyridin-4-yl}ethyl]piperazine-1-carboxylate]",12 nM
5,"Cc1cc(CN2CCN(C(=O)CC(F)(F)F)CC2)cc(Nc2nc3ccc(-c4ccnc(C)n4)cc3[nH]2)n1 [Example 24.02.02, 3,3,3-trifluoro-1-{4-[(2-methyl-6-{[6-(2-methylpyrimidin-4-yl)-1H-benzimidazol-2-yl]amino}pyridin-4-yl)methyl]piperazin-1-yl}propan-1-one]",63.1 nM
6,"Cn1ncnc1-c1ccc2nc(Nc3cc(CN4CCN(C(=O)CC(F)(F)F)CC4)ccn3)[nH]c2c1 [Example 41.02, 3,3,3-trifluoro-1-{4-[(2-{[6-(1-methyl-1H-1,2,4-triazol-5-yl)-1H-benzimidazol-2-yl]amino}pyridin-4-yl)methyl]piperazin-1-yl}propan-1-one]",681 nM
7,"CCOc1c(-c2cnn(CC)c2)ccc2nc(Nc3cc(CN4CCN(C(=O)C5CC5)CC4)ccn3)[nH]c12 [Example 53.02, cyclopropyl{4-[(2-{[7-ethoxy-6-(1-ethyl-1H-pyrazol-4-yl)-1H-benzimidazol-2-yl]amino}pyridin-4-yl)methyl]piperazin-1-yl}methanone]",121 nM
8,"Cc1nccc(-c2ccc3nc(Nc4cc(CN5CCN(C(=O)CC6CC6)CC5)ccn4)[nH]c3c2)n1 [Example 24.01.04, 2-cyclopropyl-1-{4-[(2-{[6-(2-methylpyrimidin-4-yl)-1H-benzimidazol-2-yl]amino}pyridin-4-yl)methyl]piperazin-1-yl}ethanone]",44.4 nM
9,"COCCCNc1cc(-c2ccc3nc(Nc4cc(CN5CCN(C(=O)OC(C)(C)C)CC5)ccn4)[nH]c3c2)ncn1 [Example 90.01, tert-butyl 4-({2-[(6-{6-[(3-methoxypropyl)amino]pyrimidin-4-yl}-1H-benzimidazol-2-yl)amino]pyridin-4-yl}methyl)piperazine-1-carboxylate]",5.7 nM

# Now from value to molecule:
row,IC50,Structure (SMILES)
1,38 nM,"Cc1cc(-c2ccc3nc(Nc4cc(CN5CCN(C(=O)CC(F)(F)F)CC5)ccn4)[nH]c3c2)cc(C#N)n1 [Example 136.02, 6-methyl-4-{2-[(4-{[4-(3,3,3-trifluoropropanoyl)piperazin-1-yl]methyl}pyridin-2-yl)amino]-1H-benzimidazol-6-yl}pyridine-2-carbonitrile]"
2,160 nM,"CC(C)(C)OC(=O)N1CCN(Cc2ccnc(Nc3nc4ccc(-c5cc(OCC6(C(F)(F)F)CC6)ncn5)cc4[nH]3)c2)CC1 [Example 158.01, tert-butyl 4-[(2-{[6-(6-{[1-(trifluoromethyl)cyclopropyl]methoxy}pyrimidin-4-yl)-1H-benzimidazol-2-yl]amino}pyridin-4-yl)methyl]piperazine-1-carboxylate]"
3,7.9 nM,"CC(c1ccnc(Nc2nc3ccc(-c4cc(N5CCOCC5)ncn4)cc3[nH]2)c1)N1CCN(C(=O)OC(C)(C)C)CC1 (single isomer, unassigned) [Example 118.01, tert-butyl 4-{(1R or 1S)-1-[2-({6-[6-(morpholin-4-yl)pyrimidin-4-yl]-1H-benzimidazol-2-yl}amino)pyridin-4-yl]ethyl}piperazine-1-carboxylate]"
4,402 nM,"Cc1cc(-c2ccc3nc(Nc4cc(CN5CCN(C(=O)CC(F)(F)F)CC5)ccn4)[nH]c3c2)nc(N(C)C)n1 [Example 178.02, 1-(4-{[2-({6-[2-(dimethylamino)-6-methylpyrimidin-4-yl]-1H-benzimidazol-2-yl}amino)pyridin-4-yl]methyl}piperazin-1-yl)-3,3,3-trifluoropropan-1-one]"
5,13 nM,"CC(C)Oc1cc(-c2ccc3nc(Nc4cc(CN5CCN(C(=O)CC(F)(F)F)CC5)ccn4)[nH]c3c2)ncn1 [Example 160.02, 3,3,3-trifluoro-1-(4-{[2-({6-[6-(propan-2-yloxy)pyrimidin-4-yl]-1H-benzimidazol-2-yl}amino)pyridin-4-yl]methyl}piperazin-1-yl)propan-1-one]"
6,650 nM,"Cc1noc(-c2ccc3nc(Nc4cc(CN5CCN(C(=O)CC(F)(F)F)CC5)c(Br)cn4)[nH]c3c2)n1 [Example 125.02, 1-{4-[(5-bromo-2-{[6-(3-methyl-1,2,4-oxadiazol-5-yl)-1H-benzimidazol-2-yl]amino}pyridin-4-yl)methyl]piperazin-1-yl}-3,3,3-trifluoropropan-1-one]"
7,11 nM,"CC(c1ccnc(Nc2nc3ccc(-c4cnn(CC5CC5)c4)c(F)c3[nH]2)c1)N1CCN(C(=O)OC(C)(C)C)CC1 (single isomer, unassigned) [Example 121.01, tert-butyl 4-{(1R or 1S)-1-[2-({6-[1-(cyclopropylmethyl)-1H-pyrazol-4-yl]-7-fluoro-1H-benzimidazol-2-yl}amino)pyridin-4-yl]ethyl}piperazine-1-carboxylate]"
8,8.3 nM,"O=C(C1CC1)N1CCN(Cc2ccnc(Nc3nc4ccc(-c5ncnc(NC6CC6)c5F)cc4[nH]3)c2)CC1 [Example 192.03, cyclopropyl(4-{[2-({6-[6-(cyclopropylamino)-5-fluoropyrimidin-4-yl]-1H-benzimidazol-2-yl}amino)pyridin-4-yl]mnethyl}piperazin-1-yl)methanone]"
9,1.3 nM,"CC(c1ccnc(Nc2nc3ccc(-c4cc(N5CC(F)(F)C5)ncn4)cc3[nH]2)c1)N1CCN(C(=O)CC(F)(F)F)CC1 (single isomer, unassigned) [Example 116.03, 1-(4-{(1R or 1S)-1-[2-({6-[6-(3,3-difluoroazetidin-1-yl)pyrimidin-4-yl]-1H-benzimidazol-2-yl}amino)pyridin-4-yl]ethyl}piperazin-1-yl)-3,3,3-trifluoropropan-1-one]"
10,13 nM,"CN(CC1CC1)c1cc(-c2ccc3nc(Nc4cc(CN5CCN(C(=O)C6CC6)CC5)ccn4)[nH]c3c2)ncn1 [Example 141.03, cyclopropyl[4-({2-[(6-{6-[(cyclopropylmethyl)(methyl)amino]pyrimidin-4-yl}-1H-benzimidazol-2-yl)amino]pyridin-4-yl}methyl)piperazin-1-yl]methanone]"
